The values below come from publication PMC4928627 (Journal of Natural Products, 2016).

Each structure is given as a SMILES string.

In series [1] the test system is CHIKV Indian Ocean strain 899. Description: CHIKV CPE reduction assay. In kind it is cell-based, chikungunya virus (CHIKV). The conditions noted are these: BGM cells, 0.001 MOI CHIKV 899, day 5 p.i.
A further series relates to human cancer cell lines. As to conditions: growth inhibition; cited from earlier work.
For the next series, the system named is BGM cells. Put plainly: Cytotoxic/cytostatic effect in uninfected cells. The class given is cell-based, buffalo green monkey. As to conditions: compound alone.

As for `C=C1C[C@H]2C[C@]3(O)O[C@H](C[C@@H](O)CC(=O)O[C@@H](CO)C[C@@H]4C/C(=C\C(=O)OC)[C@H](OC(=O)CCCCCCC)[C@@](O)(O4)C(C)(C)/C=C/[C@@H](C1)O2)C[C@H](OC(C)=O)C3(C)C` [compound 19], the “EC50 (concentration of compound that reduces the CHIKV-induced cytopathic effect by 50%)” value in series [1] is “toxicity before any observable cell-protective effect”. In the case of `CCCCCCCC(=O)O[C@H]1/C(=C/C(=O)OC)C[C@H]2C[C@H](CO)OC(=O)C[C@H](O)C[C@@H]3CCC[C@H](C[C@@H]4CCO[C@H](/C=C/C(C)(C)[C@]1(O)O2)O4)O3` [compound 3], in the series with human cancer cell lines, the “effectiveness of the analogue relative to the natural product (bryostatin)” value is 2–3 orders of magnitude. As to `CCC/C=C/C=C/C(=O)O[C@H]1/C(=C/C(=O)OC)C[C@H]2C[C@H]([C@@H](C)O)OC(=O)C[C@H](O)C[C@@H]3C[C@H](OC(C)=O)C(C)(C)[C@](O)(C[C@@H]4C/C(=C/C(=O)OC)C[C@H](/C=C/C(C)(C)[C@]1(O)O2)O4)O3` [compound 1, Bryostatin 1, reference compound], the “EC50 (concentration of compound that reduces the CHIKV-induced cytopathic effect by 50%)” value in series [1] (listed as bryostatin) is “ineffective”; in series [1] (listed as bryostatin 1) it was “inactive”. With `CCCCCCCC(=O)O[C@H]1/C(=C/C(=O)OC)C[C@H]2C[C@H](CO)OC(=O)C[C@H](O)C[C@@H]3C[C@H](OC(C)=O)C(C)(C)[C@H](C[C@@H]4CCO[C@H](/C=C/C(C)(C)[C@]1(O)O2)O4)O3` [compound 10], the “EC50 (concentration of compound that reduces the CHIKV-induced cytopathic effect by 50%)” value in series [1] is listed as “potent”. Besides, in the series on BGM cells, the “CC50 (concentration at which cell viability is 50% relative to untreated cells)” value was “nontoxic”. Consider `C=C1C[C@H]2C[C@]3(O)O[C@H](C[C@@H](O)CC(=O)O[C@@H](CO)C[C@@H]4C/C(=C\C(=O)OC)[C@H](OC(=O)CCCCCCC)[C@@](O)(O4)C(C)(C)/C=C/[C@@H](C1)O2)C[C@H](O)C3(C)C` [compound 18], for which the “EC50 (concentration of compound that reduces the CHIKV-induced cytopathic effect by 50%)” value in series [1] is listed as “toxicity before any observable cell-protective effect”.
